Results published in patent publication US20200330444A1, “[…] FOR TREATING PAIN AND RELATED DISEASES AND CONDITIONS, AND COMPOSITIONS AND METHODS THEREOF” (NeuForm Pharmaceuticals, Inc., priority 2016, published 2020).

Experiments:
CYP2D6 = CYP2D6 (Homo sapiens, UniProt P10635); assay: In vitro metabolic stability on incubation with CYP2D6; format: in vitro ADME
Method: (§1) The stability time course samples were prepared and extracted immediately by protein precipitation method using acetonitrile containing 575 ng/mL carbutamide, 100 ng/mL loxapine and 10 ng/mL longdaysin as the internal standard (IS). The samples were analyzed on a Waters Acquity UPLC system coupled with a mass dspectrometer. The peak area ratios of respective extracted ion chromatograms were used for relative comparison.
(§2) 300 μL of the above 2.0 μM combo solutions were added into 1.5 mL of Eppendof tubes. The samples were put in 37° C. incubator for 10 minutes. Then 300 of 37° C. pre-warmed 0.35 mg/mL of human liver microsome (or 37.5 pmol/mL CYP3A4, or 25 pmol/mL CYP2D6) and 2.6 mM NADPH in 100 mM potassium phosphate buffer pH 7.4 (contains 3.3 mM MgCl2) was added to initiate the enzyme activity. 50.0 μL of the reaction mixture was put into 150 μL of acetonitrile with 100 ng/mL loxapine, 10 ng/ml longdaysin (IS) to stop the reaction at 0′, 15′, 30′, 60′, 2 hours, 3 hours and 4 hours. The samples were vortexed and centrifuged at 13,000 g for approximately 5 min, then supernatants were taken and stored in −20° C. freezer. After the last samples were taken and they were placed in −20° C. at least 1 hour. All samples were put into a refrigerator at approximate 4° C. for 30 min. The samples were vortexed. […]

[1] = In vitro metabolic stability in human liver microsome suspensions; format: in vitro ADME
Method: as §1, §2

CYP2D6, sequence (P10635 whole entry): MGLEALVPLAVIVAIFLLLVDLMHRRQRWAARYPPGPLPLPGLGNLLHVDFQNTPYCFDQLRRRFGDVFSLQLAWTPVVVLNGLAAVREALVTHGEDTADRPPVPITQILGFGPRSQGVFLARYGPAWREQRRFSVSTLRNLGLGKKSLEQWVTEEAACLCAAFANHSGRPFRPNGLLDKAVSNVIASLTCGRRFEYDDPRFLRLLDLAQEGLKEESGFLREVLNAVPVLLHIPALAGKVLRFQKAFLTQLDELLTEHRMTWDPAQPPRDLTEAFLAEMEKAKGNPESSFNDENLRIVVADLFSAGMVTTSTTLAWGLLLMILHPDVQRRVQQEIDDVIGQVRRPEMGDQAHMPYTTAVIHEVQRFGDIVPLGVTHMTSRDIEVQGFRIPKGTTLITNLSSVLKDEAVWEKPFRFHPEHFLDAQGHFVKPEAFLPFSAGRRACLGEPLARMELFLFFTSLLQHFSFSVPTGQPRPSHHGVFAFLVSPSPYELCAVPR

Question: For `[2H]C([2H])(C[C@@]1(c2ccccn2)CC([2H])([2H])OC2(CC([2H])([2H])C([2H])([2H])C2)C1)NCc1sccc1OC` [D8-oliceridine], which “Half-life increased by, vs oliceridine” value (CYP2D6) is on record?
Answer: 200%

Question: For `[2H]C([2H])(C[C@@]1(c2ccccn2)CCOC2(CC([2H])([2H])C([2H])([2H])C2)C1)NCc1sccc1OC` [D6-Oliceridine-a], which “Concentration after incubation higher than that of the non-deuterated compound” value ([1]; human liver microsome, 60 min) is on record?
Answer: 32%

Question: What about the “Half-life increased by, vs oliceridine” value ([1]; incubation with human liver microsome) of the same compound?
Answer: 29%

Question: And the “Half-life increased by, vs oliceridine” value (CYP2D6)?
Answer: 200%
